50 compounds from patent US9150519B2, “6-amino-pyrimidine-4-carboxamide derivatives and related compounds which bind to the sphingosine 1-phosphate (S1P) receptor for the treatment of multiple sclerosis” (MERCK SERONO SA, priority 2007, dated 2015) can be followed below.

SMILES strings stand for the structures. Bounds are passed on as bounds.

One experiment deals with S1P3 (Homo sapiens (Human), UniProt Q99500). Briefly: 35S-GTPγS binding assay, S1P3 membranes. In kind it is biochemical. As to conditions: membranes from CHO cells expressing S1P3; read-out: S1P3 GTPyS EC50. The method, then: (§1) Membranes were prepared from CHO cells expressing S1P1 or S1P3 for use in ligand and […] binding studies. Cells were suspended in 50 mM TRIS, pH 7.4, 2 mM EDTA, 250 mM Sucrose (buffer A) and 1× Complete protease inhibitor cocktail (Roche), and disrupted at 4° C. by nitrogen decompression using a cell disruption bomb (Parr Instrument). Following centrifugation at 1000 RPM for 10 min at 4° C., the supernatant was suspended in buffer A and centrifuged again at 19000 RPM for 60 min at 4° C. The pellet was then suspended in 10 mM HEPES, pH 7.4, 1 mM EDTA, 250 mM Sucrose (Buffer B), and 1× Complete EDTA-free protease inhibitor cocktail and homogenized using a potter. Membranes were flash frozen in liquid nitrogen and stored at −80° C. [33P]sphingosine 1-phosphate (3000 Ci/mmol; American Radiolabeled Chemicals, Inc.) was added to test compounds in DMSO. Membranes and WGA SPA beads (GE Healthcare) were added to give a final volume of 100 μl in 96-well plates with assay concentrations of 25 μM or 10 μM [33P]sphingosine 1-phosphate (respectively for S1P1 or S1P3), 50 mM HEPES, pH 7.5, 5 mM MgCl2, 100 mM NaCl, 0.4% fatty acid-free BSA, 1-5 μg/well of proteins and 100 μg/well of WGA SPA beads. Binding was performed for 60 min at room temperature on a shaker and bound radioactivity was measured on a PerkinElmer 1450 MicroBeta counter. Specific binding was calculated by subtracting remaining radioactivity in the presence of 1000-fold excess of unlabeled S1P. Binding data were analyzed using the GraphPad Prism program.
Measurements of ^35S-GTPγS Binding: Membranes (1 to 10 μg protein) prepared as described above, were incubated in 96-well Scintiplates (PerkinElmer) with test compounds diluted in DMSO, in 180 μl of 20 mM HEPES, pH 7.4, 10 mM MgCl2, 2 μg/well Saponin, 0.2% fatty acid free BSA (Assay buffer), 140 mM NaCl and 1.7 μM GDP. The assay was initiated with the addition of 20 μl of 1.5 nM [35S]-GTPγS (1100 Ci/mmol; GE Healthcare) in assay buffer. After 60 min incubation at 30° C. on a shaker, plates were centrifuged for 10 min at 2000 RPM. Supernatant was discarded and membrane bound radioactivity was measured on a PerkinElmer 1450 MicroBeta counter. Triplicate samples were averaged and expressed as % response relative to SIP activation in absence of compound (n=2).

Another experiment addresses S1P1 (Homo sapiens (Human), UniProt P21453). The experiment can be described thus: 35S-GTPγS binding assay, S1P1 membranes. Format: biochemical. As to conditions: membranes from CHO cells expressing S1P1; read-out: S1P1 GTPyS EC50. The method, then:
as §1, with “Membranes and WGA SPA beads (GE Healthcare) were added to give a final volume of 100 μl in 96-well plates with assay concentrations of 25 μM or 10 μM [33P]sphingosine 1-phosphate (respectively for S1P1 or S1P3), 50 mM HEPES, pH 7.5, 5 mM MgCl2, 100 mM NaCl, 0.4% fatty acid-free BSA, 1-5 μg/well of proteins and 100 μg/well of WGA SPA beads.” left out
The assay was initiated with the addition of 20 μl of 1.5 nM [35S]-GTPγS (1100 Ci/mmol; GE Healthcare) in assay buffer. After 60 min incubation at 30° C. on a shaker, plates were centrifuged for 10 min at 2000 RPM. Supernatant was discarded and membrane bound radioactivity was measured on a PerkinElmer 1450 MicroBeta counter. Triplicate samples were averaged and expressed as % response relative to SIP activation in absence of compound (n=2).

S1P1, sequence (P21453 whole entry, species assumed): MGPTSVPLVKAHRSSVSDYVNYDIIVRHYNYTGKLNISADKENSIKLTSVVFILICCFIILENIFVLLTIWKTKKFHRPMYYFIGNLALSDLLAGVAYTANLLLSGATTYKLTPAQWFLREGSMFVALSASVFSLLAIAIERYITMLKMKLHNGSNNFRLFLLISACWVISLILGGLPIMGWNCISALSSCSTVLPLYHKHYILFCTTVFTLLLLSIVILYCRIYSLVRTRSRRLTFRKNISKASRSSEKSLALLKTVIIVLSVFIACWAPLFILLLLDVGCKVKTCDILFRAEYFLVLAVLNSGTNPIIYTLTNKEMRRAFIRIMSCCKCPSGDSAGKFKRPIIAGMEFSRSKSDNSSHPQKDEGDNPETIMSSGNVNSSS
S1P3, sequence (Q99500 whole entry, species assumed): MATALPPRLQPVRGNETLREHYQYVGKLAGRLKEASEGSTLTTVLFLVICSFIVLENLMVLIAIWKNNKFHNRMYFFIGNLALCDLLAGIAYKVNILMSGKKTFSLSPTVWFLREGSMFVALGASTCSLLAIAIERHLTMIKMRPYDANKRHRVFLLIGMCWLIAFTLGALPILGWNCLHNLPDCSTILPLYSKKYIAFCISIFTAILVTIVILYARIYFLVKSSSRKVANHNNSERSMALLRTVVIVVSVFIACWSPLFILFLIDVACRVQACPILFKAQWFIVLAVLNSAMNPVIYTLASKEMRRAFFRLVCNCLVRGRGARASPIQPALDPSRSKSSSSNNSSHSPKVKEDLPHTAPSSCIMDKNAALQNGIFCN

Take `Cc1cc(O)ccc1NC(=O)c1cc(NC2CCCCC2)ncn1` [Example 1-1]: on S1P3, the concentration giving a half-maximal response (EC50) was more than 30000 nM.

As for `O=C(Nc1ccc(O)c2ccccc12)c1cc(NC2CCCCC2)ncn1` [Example 1-5], the EC50 on S1P3 is more than 30000 nM.

As to `O=C(Nc1ccc(O)cc1F)c1cc(NC2CCCCC2)ncn1` [Example 1-7], the concentration giving a half-maximal response (EC50) at S1P3 was more than 30000 nM.

As to `O=C(Nc1ccc(O)cc1Cl)c1cc(NC2CCCCC2)ncn1` [Example 1-8], at S1P3, the EC50 was more than 30000 nM.

As to `CS(=O)(=O)Nc1ccc(NC(=O)c2cc(NC3CCCCC3)ncn2)cc1` [Example 1-13], the EC50 on S1P3 was more than 30000 nM.

As for `O=C(Nc1ccc(O)cc1C(F)(F)F)c1cc(NC2CCCCC2)ncn1` [Example 1-15], the EC50 on S1P1 is 380 nM; at S1P3 it was more than 30000 nM.

As for `O=C(Nc1ccnc2ccccc12)c1cc(NC2CCCCC2)ncn1` [Example 1-16], the values for the EC50 on S1P1 and on S1P3 were 1070 nM and 5230 nM, respectively.

On to `Cc1cc(S(N)(=O)=O)ccc1NC(=O)c1cc(NC2CCCCC2)ncn1` [Example 1-18], for which the values for the EC50 at S1P1 and on S1P3 were 440 nM and more than 30000 nM, respectively.

Turning to `CN(c1cc(C(=O)Nc2ccc(O)cc2)ncn1)C1CCCCC1` [Example 1-19], the half-maximal effective concentration (EC50) at S1P3 is more than 30000 nM.

With `CCCN(CCC)c1cc(C(=O)Nc2ccc(O)cc2)ncn1` [Example 1-22], the concentration for a half-maximal effect (EC50) worked out at 370 nM on S1P1 and 2320 nM at S1P3.

For `CCN(c1cc(C(=O)Nc2ccc(O)cc2C)ncn1)C1CCCCC1` [Example 1-25], the concentration giving a half-maximal response (EC50) at S1P1 was 400 nM; on S1P3 it was more than 30000 nM.

In the case of `O=C(Nc1ccc(O)cc1)c1cc(OC2CCCCC2)ncn1` [Example 1-26], the EC50 at S1P1 is 240 nM; at S1P3, more than 30000 nM.

Take `O=C(Nc1ccc2[nH]ncc2c1)c1cc(NC2CCCCC2)ncn1` [Example 1-28]: at S1P3, the EC50 was more than 30000 nM.

With `Cc1cc(S(N)(=O)=O)ccc1NC(=O)c1cc(N(C)C2CCCCC2)ncn1` [Example 1-29], the EC50 is 65 nM at S1P1 and more than 30000 nM on S1P3.

With `Cc1cc(O)ccc1NC(=O)c1cc(N(CC2CC2)C2CCCCC2)ncn1` [Example 1-33], the EC50 on S1P1 turned out to be 24.6 nM; on S1P3, 100000 nM.

Turning to `Cc1cc(O)ccc1NC(=O)c1cc(OC2CCCCC2)ncn1` [Example 1-34], the values for the EC50 at S1P1 and on S1P3 were 132 nM and more than 20000 nM, respectively.

`CN(c1cc(C(=O)Nc2ccc3[nH]ncc3c2)ncn1)C1CCCCC1` [Example 1-35]: the values for the concentration giving a half-maximal response (EC50) on S1P1 and on S1P3 were 418 nM and more than 20000 nM, respectively.

Take `CCC(C)Oc1cc(C(=O)Nc2ccc(O)cc2C)ncn1` (centres unmarked) [Example 1-36]: the concentration giving a half-maximal response (EC50) on S1P1 is 2920 nM; on S1P3, more than 20000 nM.

As to `Cc1cc(S(N)(=O)=O)ccc1NC(=O)c1cc(N(CC2CC2)C2CCCCC2)ncn1` [Example 1-38], the EC50 was determined as 2 nM at S1P1 and 47500 nM on S1P3.

For the compound `Cc1cc2[nH]ncc2cc1NC(=O)c1cc(N(C)C2CCCCC2)ncn1` [Example 1-39], the EC50 at S1P1 was found to be 211 nM; on S1P3, 2330 nM.

Turning to `CN(c1cc(C(=O)Nc2ccc(S(=O)(=O)NCC(O)CO)cc2)ncn1)C1CCCCC1` (centres unmarked) [Example 1-40], the concentration for a half-maximal effect (EC50) at S1P1 was 1520 nM; at S1P3, more than 20000 nM.

Regarding `CN(c1cc(C(=O)Nc2ccc3c(c2)CC(=O)N3)ncn1)C1CCCCC1` [Example 1-41], the values for the concentration giving a half-maximal response (EC50) on S1P1 and at S1P3 were 1780 nM and 32000 nM, respectively.

With `O=C(Nc1ccc(CCO)cc1)c1cc(NC2CCCCC2)ncn1` [Example 1-52], on S1P3, the concentration giving a half-maximal response (EC50) was more than 30000 nM.

Consider `O=C(Nc1ccc(O)cc1)c1cc(NC2CCCCC2)ncn1` [Example 1-53], for which the EC50 on S1P3 is more than 30000 nM.

Regarding `CCCN(CC1CC1)c1cc(C(=O)Nc2ccc(S(N)(=O)=O)cc2C)ncn1` [Example 1-56], the concentration giving a half-maximal response (EC50) on S1P3 is more than 20000 nM.

With `Cc1cc(S(=O)(=O)NCCC(=O)O)ccc1NC(=O)c1cc(N(CC2CC2)C2CCCCC2)ncn1` [Example 1-62], the 50% effective concentration (EC50) on S1P3 stood at 62 nM.

Turning to `Cc1cc(S(=O)(=O)NCCCC(=O)O)ccc1NC(=O)c1cc(N(CC2CC2)C2CCCCC2)ncn1` [Example 1-63], the EC50 on S1P3 was 1310 nM.

For `CC(C)CN(c1cc(C(=O)Nc2ccc3[nH]ncc3c2)ncn1)C1CCCC1` [Example 1-69], the EC50 at S1P3 was determined as 666 nM.

Regarding `O=C(Nc1ccc(CN2CC(C(=O)O)C2)cc1)c1cc(N(CC2CC2)C2CCCCC2)ncn1` [Example 1-84], at S1P3, the EC50 was found to be 236 nM.

Regarding `CCCN(CC1CC1)c1cc(C(=O)Nc2ccc(CO)cc2C)ncn1` [Example 1-85], the EC50 on S1P3 was more than 20000 nM.

`CCCN(CC1CC1)c1cc(C(=O)Nc2ccc(S(=O)(=O)NCCC(=O)O)cc2C)ncn1` [Example 1-99]: the concentration for a half-maximal effect (EC50) at S1P3 was determined as 5650 nM.

As for `CCCN(CC1CC1)c1cc(C(=O)Nc2ccc(CNCC(=O)O)cc2C)ncn1` [Example 1-100], at S1P3, the EC50 is more than 20000 nM.

Take `CCCN(CC1CC1)c1cc(C(=O)Nc2cccc3[nH]ccc23)ncn1` [Example 1-113]: the EC50 at S1P3 is more than 20000 nM.

Consider `O=C(Nc1ccc(Cn2cncn2)cc1)c1cc(N(CC2CC2)C2CCCCC2)ncn1` [Example 1-137], for which the EC50 at S1P1 was 346 nM.

For `CCCN(CC1CC1)c1cc(C(=O)Nc2ccc(CN3CCC(C(=O)O)CC3)cc2C)ncn1` [Example 1-138], the 50% effective concentration (EC50) on S1P1 was 443 nM.

Take `CCCN(CC1CC1)c1cc(C(=O)Nc2ccc(CN3CCC[C@@H]3COC)cc2C)ncn1` [Example 1-139]: the EC50 on S1P1 came out at 2480 nM.

In the case of `CCCN(CC1CC1)c1cc(C(=O)Nc2ccc(CN3CCC(O)CC3)cc2C)ncn1` [Example 1-140], at S1P1, the concentration giving a half-maximal response (EC50) was determined as 1410 nM.

Consider `CCCN(CC1CC1)c1cc(C(=O)Nc2ccc(CN3CCCC(CO)C3)cc2C)ncn1` (centres unmarked) [Example 1-141], for which the EC50 on S1P1 was 2290 nM.

For the compound `CCCN(CC1CC1)c1cc(C(=O)Nc2ccc(CN3CCC(O)C3)cc2C)ncn1` (centres unmarked) [Example 1-142], the EC50 on S1P1 came to 465 nM.

Consider `CCCN(CC1CC1)c1cc(C(=O)Nc2cccc(-n3cncn3)c2)ncn1` [Example 1-143], for which, on S1P1, the EC50 worked out at 79 nM.

For `CCCN(CC1CC1)c1cc(C(=O)Nc2cccc(-n3ccnc3C)c2)ncn1` [Example 1-144], the EC50 at S1P1 is 1540 nM.

`CCCN(CC1CC1)c1cc(C(=O)Nc2ccc(Cn3cncn3)cc2)ncn1` [Example 1-145]: the half-maximal effective concentration (EC50) on S1P1 amounted to 55 nM.

Consider `CCCN(CC1CC1)c1cc(C(=O)Nc2ccc(-n3cncn3)cc2)ncn1` [Example 1-146], for which, at S1P1, the EC50 came to 279 nM.

`CCCN(CC1CC1)c1cc(C(=O)Nc2cccc(-n3ccnc3)c2)ncn1` [Example 1-147]: the 50% effective concentration (EC50) on S1P1 is 38 nM.

Take `CCCN(CC1CC1)c1cc(C(=O)Nc2cccc(Cn3cccn3)c2)ncn1` [Example 1-148]: the EC50 at S1P1 is 1050 nM.

As to `CCCN(CC1CC1)c1cc(C(=O)Nc2ccc(CC3COC(=O)N3)cc2)ncn1` (centres unmarked) [Example 1-150], the EC50 at S1P1 amounted to 268 nM.

Turning to `CCCN(CC1CC1)c1cc(C(=O)Nc2ccc(N3CCOCC3)c(F)c2)ncn1` [Example 1-151], the 50% effective concentration (EC50) on S1P1 was found to be 604 nM.

For `CCCN(CC1CC1)c1cc(C(=O)Nc2cccc(Cn3cncn3)c2)ncn1` [Example 1-152], at S1P1, the EC50 worked out at 1120 nM.

As to `CCCN(CC1CC1)c1cc(C(=O)Nc2cccc(Cn3ccnc3)c2)ncn1` [Example 1-153], at S1P1, the EC50 was 481 nM.

In the case of `CCCN(CC1CC1)c1cc(C(=O)Nc2ccc(CN3CCC3)cc2C)ncn1` [Example 1-154], the concentration for a half-maximal effect (EC50) on S1P1 came to 807 nM.

As a reminder, the EC50 is the midpoint of the concentration-response curve.
